Consider four molecules from the NIST ThermoML archive (doi:10.1021/acs.jced.6b00606).

The conditions of data set [1]: Liquid; for speed of sound: 100 kPa, Frequency=3 MHz, Sing-around technique in a fixed-path interferometer; for mass density: 101.33 kPa, Vibrating tube method.
The nature of data set [2]: molar heat capacity at constant pressure. Particulars: 101.33 kPa, Liquid, Extra sensitive DSC.

± gives the expanded uncertainty stated by the source.

Turning to `C1COCCO1` [1,4-dioxane], the speed of sound in data set [1] (293.15 K) came to 1367.8 ± 1.5 m/s; in data set [1] (298.15 K), 1346 ± 1.5 m/s; in data set [1] (303.15 K), 1324.4 ± 1.5 m/s; in data set [1] (308.15 K), 1302.5 ± 1.5 m/s. The mass density was found to be 1033.59 ± 1 kg/m3 in data set [1] (293.15 K), 1027.94 ± 1 kg/m3 in data set [1] (298.15 K), 1022.28 ± 1 kg/m3 in data set [1] (303.15 K) and 1016.59 ± 1 kg/m3 in data set [1] (308.15 K). For the same molecule, the “molar heat capacity at constant pressure” value was 151.62 ± 5.9 J/K/mol in data set [2] (293.15 K), 152.76 ± 5.9 J/K/mol in data set [2] (298.15 K), 153.92 ± 6 J/K/mol in data set [2] (303.15 K) and 155.09 ± 6 J/K/mol in data set [2] (308.15 K).

Take `C1CCOCC1` [tetrahydropyran]: the speed of sound came out at 1293 ± 1.4 m/s in data set [1] (293.15 K), 1269.7 ± 1.4 m/s in data set [1] (298.15 K), 1246.7 ± 1.4 m/s in data set [1] (303.15 K) and 1224.3 ± 1.4 m/s in data set [1] (308.15 K). Further, the mass density in data set [1] (293.15 K) is recorded as 884.23 ± 1 kg/m3; in data set [1] (298.15 K), 879.09 ± 1 kg/m3; in data set [1] (303.15 K), 873.91 ± 1 kg/m3; in data set [1] (308.15 K) it was 868.75 ± 1 kg/m3. Moreover, the “molar heat capacity at constant pressure” value is recorded as 148.03 ± 5.7 J/K/mol in data set [2] (293.15 K), 149.68 ± 5.8 J/K/mol in data set [2] (298.15 K), 151.18 ± 5.9 J/K/mol in data set [2] (303.15 K) and 153.01 ± 5.9 J/K/mol in data set [2] (308.15 K).

Consider `O=C1CCCCC1` [cyclohexanone], for which the speed of sound is on record as 1431.2 ± 1.3 m/s in data set [1] (293.15 K), 1415.5 ± 1.3 m/s in data set [1] (298.15 K), 1395.1 ± 1.3 m/s in data set [1] (303.15 K) and 1375.1 ± 1.3 m/s in data set [1] (308.15 K). Moreover, the mass density in data set [1] (293.15 K) came out at 947.38 ± 1 kg/m3; in data set [1] (298.15 K), 942.92 ± 1 kg/m3; in data set [1] (303.15 K), 938.07 ± 1 kg/m3; in data set [1] (308.15 K), 933.19 ± 1 kg/m3. The “molar heat capacity at constant pressure” value in data set [2] (293.15 K) is on record as 176.17 ± 6.8 J/K/mol; in data set [2] (298.15 K), 178.27 ± 6.9 J/K/mol; in data set [2] (303.15 K), 180.38 ± 7 J/K/mol; in data set [2] (308.15 K) it was 182.46 ± 7.1 J/K/mol.

Take `O=C1CCCCCC1` [cycloheptanone]: the speed of sound is listed as 1477.3 ± 1.6 m/s in data set [1] (293.15 K), 1455 ± 1.6 m/s in data set [1] (298.15 K), 1432.4 ± 1.6 m/s in data set [1] (303.15 K) and 1409.6 ± 1.6 m/s in data set [1] (308.15 K). Besides, the mass density in data set [1] (293.15 K) came out at 951.85 ± 1 kg/m3; in data set [1] (298.15 K) it was 947.62 ± 1 kg/m3; in data set [1] (303.15 K), 943.38 ± 1 kg/m3; in data set [1] (308.15 K), 939.14 ± 1 kg/m3. Moreover, the “molar heat capacity at constant pressure” value in data set [2] (293.15 K) is reported as 201.11 ± 7.8 J/K/mol; in data set [2] (298.15 K), 202.01 ± 7.8 J/K/mol; in data set [2] (303.15 K), 203.21 ± 7.9 J/K/mol; in data set [2] (308.15 K), 204.51 ± 7.9 J/K/mol.

As a reminder, the speed of sound is the propagation velocity of pressure waves in the medium. Usually mass density stands for the mass of a sample divided by its volume.
